In PMC10995199, “Architecture and regulation of filamentous human cystathionine beta-synthase” (Nature Communications, 2024):

Tests used:
CBS^Δ516–525 [1] = molecular target: T1, CBS^Δ516–525 (Homo sapiens, UniProt P35520, DEL516-525); test: AzMC fluorescence H2S production; assay type: biochemical; details: read-out: Kact
T1 construct: full-length with regulatory domain loop 516-525 deleted, E. coli Rosetta (DE3); dimer; no C-terminal His-tag
T1 sequence (P35520 with tags, fused parts or gaps DEL516-525): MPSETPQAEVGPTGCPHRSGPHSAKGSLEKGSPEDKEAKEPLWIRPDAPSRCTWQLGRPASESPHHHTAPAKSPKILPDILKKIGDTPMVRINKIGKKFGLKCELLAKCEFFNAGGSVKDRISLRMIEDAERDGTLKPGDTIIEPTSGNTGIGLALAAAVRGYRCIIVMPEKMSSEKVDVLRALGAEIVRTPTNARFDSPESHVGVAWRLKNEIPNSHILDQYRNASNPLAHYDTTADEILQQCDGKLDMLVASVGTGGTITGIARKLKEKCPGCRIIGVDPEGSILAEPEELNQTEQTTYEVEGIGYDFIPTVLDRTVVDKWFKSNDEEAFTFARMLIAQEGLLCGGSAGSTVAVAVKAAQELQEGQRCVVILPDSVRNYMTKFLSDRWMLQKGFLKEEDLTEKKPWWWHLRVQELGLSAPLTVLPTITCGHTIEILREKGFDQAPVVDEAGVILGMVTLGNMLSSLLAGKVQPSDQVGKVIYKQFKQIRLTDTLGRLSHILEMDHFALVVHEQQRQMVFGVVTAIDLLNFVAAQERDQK

CBS^Δ516–525 [2] = molecular target: T1, CBS^Δ516–525; test: ITC; assay type: binding; details: 25 °C, 20 mM HEPES pH 7.4; two-site fit

EC50 (CBS^Δ516–525 [1]): 26 to 36 µM
Structure (SMILES): C[S+](CC[C@H](N)C(=O)O)C[C@H]1O[C@@H](n2cnc3c(N)ncnc32)[C@H](O)[C@@H]1O (stereo partly drawn) [S-adenosyl-L-methionine]
Kd (CBS^Δ516–525 [2]): also presented two events, though this construct is dimeric
